ChEMBL document CHEMBL2094260, “Malaria Box Tuberculosis Screening Data”

Legend:
[1] = system: Mycobacterium tuberculosis; assay: MMV: Screen against Mtb, single point, non replicating, at 25uM; assay type: functional
[2] = system: Mycobacterium tuberculosis; assay: MMV: Screen against Mtb, single point, replicating, at 25uM; assay type: functional

CN(C)CCCNc1c2ccccc2nc2ccccc12
inhibition at 25 µM [1]: 17.8%
inhibition at 25 µM [2]: 18.4%

CCN1CCCC1CNc1[nH]cnc2c3cc(Cl)ccc3nc1-2 (stereo not given)
inhibition at 25 µM [1]: 4.53%
inhibition at 25 µM [2]: 0.0616%

COc1ccc(-c2c(C)nn3c(N)c(C#N)cnc23)cc1OC
inhibition at 25 µM [1]: 11.5%
inhibition at 25 µM [2]: 5.83%

CSC1=NC(=Nc2c(C)cccc2C)C2(CCC(C(C)(C)C)CC2)N1c1ccc(Cl)cc1 (stereo not given)
inhibition at 25 µM [1]: 9.94%
inhibition at 25 µM [2]: 1.28%

COc1ccc2nc(C)cc(Nc3ccccc3O)c2c1
inhibition at 25 µM [1]: 7.14%
inhibition at 25 µM [2]: 13.6%

Cc1cc(C)cc(Nc2cc(C)nc3nc(C(F)(F)F)nn23)c1
inhibition at 25 µM [1]: 4.53%
inhibition at 25 µM [2]: 7.5%

O=C(NCC(c1ccsc1)N1CCCCCC1)c1ccc(C(F)(F)F)cc1 (stereo not given)
inhibition at 25 µM [1]: 10.5%
inhibition at 25 µM [2]: 8.41%

COc1ccc(-c2cc3c(SCC(=O)Nc4cc(C(F)(F)F)ccc4Cl)nccn3n2)cc1
inhibition at 25 µM [1]: 15%
inhibition at 25 µM [2]: 10.2%

Cc1ccc(-c2cc3c(SCC(=O)Nc4cc(C(F)(F)F)ccc4Cl)nccn3n2)cc1
inhibition at 25 µM [1]: 8.19%
inhibition at 25 µM [2]: 3.25%

CCN(CC)CCNc1ncnc2c1[nH]c1ccc(Cl)cc12
inhibition at 25 µM [1]: 18.1%
inhibition at 25 µM [2]: 15.4%

CCOC(=O)c1cnc2ccc(CC)cc2c1O
inhibition at 25 µM [1]: 7.14%
inhibition at 25 µM [2]: 12.5%

Cc1ccc(-c2cc3c(nn2)-c2ccccc2C3=O)cc1
inhibition at 25 µM [1]: 17.3%
inhibition at 25 µM [2]: 41.8%

CCN(CC)CCNc1ccnc2cc(Cl)ccc12
inhibition at 25 µM [1]: 18.3%
inhibition at 25 µM [2]: 4.01%

CCCCCC(=O)N1c2ccccc2N=C2CC(c3ccc(OC)c(OC)c3)CC(O)=C2C1c1ccc(C(F)(F)F)cc1 (stereo not given)
inhibition at 25 µM [1]: 16%
inhibition at 25 µM [2]: 12.5%

Cc1cc(Nc2ccc3ccccc3c2)n2ncnc2n1
inhibition at 25 µM [1]: 19.9%
inhibition at 25 µM [2]: -2.52%

COc1ccc(-n2ccnc2SCC(=O)Nc2cc(C)ccc2C)c(OC)c1
inhibition at 25 µM [1]: 8.89%
inhibition at 25 µM [2]: 2.95%

CCN1CCN(Cc2ccc(NC(=O)c3cc4ccc5cccnc5c4[nH]3)cc2)CC1
inhibition at 25 µM [1]: 3.13%
inhibition at 25 µM [2]: 18.3%

COc1ccc(-c2nc(NC(=O)CS(=O)(=O)c3ccc(F)cc3)sc2C)cc1
inhibition at 25 µM [1]: 21.5%
inhibition at 25 µM [2]: 14.9%

O=C(O)C1Cc2c([nH]c3ccccc23)C(c2ccc(Cl)cc2Cl)N1 (stereo not given)
inhibition at 25 µM [1]: 8.72%
inhibition at 25 µM [2]: 13.7%

FC(F)(F)c1ccc(Nc2nnnc3ccccc23)cc1
inhibition at 25 µM [1]: 31.2%
inhibition at 25 µM [2]: 44.2%

Cc1ccc(N2C(=O)C3C(C2=O)C2(c4ccccc4)C(=O)C3(c3ccccc3)C(c3ccccc3)=C2c2ccccc2)cc1 (stereo not given)
inhibition at 25 µM [1]: 4.88%
inhibition at 25 µM [2]: 9.93%

CCc1c(C)c(=N)c2ccccc2n1C
inhibition at 25 µM [1]: 2.08%
inhibition at 25 µM [2]: 4.16%

COc1cccc(NC(=O)[C@H](C(C)C)n2c(=O)[nH]c3ccccc3c2=O)c1
inhibition at 25 µM [1]: 5.22%
inhibition at 25 µM [2]: 7.35%

CCOC(=O)c1cn(CC)c2cc(N(C)CCc3ccc(OC)c(OC)c3)c(F)cc2c1=O
inhibition at 25 µM [1]: 11.9%
inhibition at 25 µM [2]: 14.8%

CCC(c1ccccc1)c1nn2c(-c3cccs3)nnc2s1 (stereo not given)
inhibition at 25 µM [1]: 20.8%
inhibition at 25 µM [2]: 19.3%

CC(C)(C)c1ccc(O)c(CNC2CCCCC2)c1
inhibition at 25 µM [1]: 16.6%
inhibition at 25 µM [2]: 38.8%

O=[N+]([O-])c1ccc(C=NNc2nc3ccccc3[nH]2)cc1
inhibition at 25 µM [1]: 16.2%
inhibition at 25 µM [2]: 16.3%

CCOc1cc2c(cc1OCC)C(c1cc(OC)c(O)cc1Cl)NCC2 (stereo not given)
inhibition at 25 µM [1]: 13.6%
inhibition at 25 µM [2]: 23.3%

CC1CN(C(=O)c2sc3ccccc3c2Cl)CC(C)O1 (stereo not given)
inhibition at 25 µM [1]: 22.9%
inhibition at 25 µM [2]: 15.5%

CN(C)c1ccc(C=Cc2nc(=O)c3ccccc3o2)cc1
inhibition at 25 µM [1]: 20.4%
inhibition at 25 µM [2]: 11.9%

COc1ccc(C2=C(c3ccc(OC)cc3)C3(c4ccccc4)C(=O)C2(c2ccccc2)C2C(=O)N(c4ccc(C)cc4)C(=O)C23)cc1 (stereo not given)
inhibition at 25 µM [1]: 11%
inhibition at 25 µM [2]: 10.1%

CCOC(=O)c1c(NC(=O)c2ccccc2)sc2c(O)c(CN(CC)CC)ccc12
inhibition at 25 µM [1]: 16%
inhibition at 25 µM [2]: 51.8%

CCOC(=O)C1=C(c2ccccc2)N=c2sc(=Cc3cc(C)n(-c4ccc(F)cc4)c3C)c(=O)n2C1c1cccc(OC)c1OC (stereo not given)
inhibition at 25 µM [1]: 6.1%
inhibition at 25 µM [2]: 1.88%

CCC1(C)CC(CCNCc2ccccc2O)(c2ccc(C)cc2)CCO1 (stereo not given)
inhibition at 25 µM [1]: 2.96%
inhibition at 25 µM [2]: 14.5%

Cc1cc(Nc2ccc(C)c(Cl)c2)n2nc(C(F)(F)F)nc2n1
inhibition at 25 µM [1]: 4.53%
inhibition at 25 µM [2]: 19.5%

COc1cccc(C=Cc2nc(=O)c3ccccc3o2)c1OC
inhibition at 25 µM [1]: 11.5%
inhibition at 25 µM [2]: 40.6%

CCCN(CCC)CC(O)COc1ccccc1C(=O)Nc1ccccc1 (stereo not given)
inhibition at 25 µM [1]: 17.1%
inhibition at 25 µM [2]: 20.9%

Fc1ccc2[nH]c3c(NCCCN4CCOCC4)ncnc3c2c1
inhibition at 25 µM [1]: 13.8%
inhibition at 25 µM [2]: 13.6%

COc1ccc(C(=O)Nc2nonc2-c2ccc(OC)c(OC)c2)cc1Cl
inhibition at 25 µM [1]: 5.57%
inhibition at 25 µM [2]: 3.86%

COc1ccc(C=C2SC(=N)N(c3ccccc3OC)C2=O)cc1
inhibition at 25 µM [1]: 6.97%
inhibition at 25 µM [2]: 24.5%

COc1ccc(NC(=O)C2c3ccccc3C(=O)N(CC(C)C)C2c2cccs2)cc1Cl (stereo not given)
inhibition at 25 µM [1]: 22.2%
inhibition at 25 µM [2]: -1.46%

CCOC(=O)c1c(C)n(-c2ccc(Cl)cc2)c2ccc(OC(=O)C=Cc3ccccc3)cc12
inhibition at 25 µM [1]: 18.8%
inhibition at 25 µM [2]: 25.1%

COc1ccc2c(c1)OC(O)(C(F)(F)C(F)(F)F)CC2=O (stereo not given)
inhibition at 25 µM [1]: 20.1%
inhibition at 25 µM [2]: 23.4%

CCOc1cc(Cl)c(C(C)NC(=O)c2ccccc2)cc1OCC (stereo not given)
inhibition at 25 µM [1]: 2.61%
inhibition at 25 µM [2]: 10.4%

C=CC12CCN(CC1)C(C(O)c1ccnc3ccc(OC)cc13)C2 (stereo not given)
inhibition at 25 µM [1]: 18.8%
inhibition at 25 µM [2]: 27.2%

Cc1ccc(-c2cc3nc4c(c(O)n3n2)CCCC4)cc1
inhibition at 25 µM [1]: 21.5%
inhibition at 25 µM [2]: 14%

Cc1cccc(Nc2nc(N)c3ccccc3n2)c1
inhibition at 25 µM [1]: -2.28%
inhibition at 25 µM [2]: 9.63%

CCn1c(CN2CCN(Cc3ccccc3)CC2)nc2cc(NC(=O)c3cccs3)ccc21
inhibition at 25 µM [1]: 15.2%
inhibition at 25 µM [2]: 12.5%

COc1ccccc1CNC(=O)CCn1c(=O)[nH]c2ccccc2c1=O
inhibition at 25 µM [1]: 11.2%
inhibition at 25 µM [2]: 6.74%

c1ccc2cc3c(Nc4ccc(N5CCOCC5)cc4)ccnc3cc2c1
inhibition at 25 µM [1]: 0.164%
inhibition at 25 µM [2]: 19.5%

Cc1cc(C)c2c(c1)OCN(Cc1ccccc1Cl)C2
inhibition at 25 µM [1]: 12%
inhibition at 25 µM [2]: 9.78%

COc1cc(OC)c(N(C)C(=O)c2cc3c(s2)-c2ccccc2S(=O)(=O)C3)cc1Cl
inhibition at 25 µM [1]: 6.97%
inhibition at 25 µM [2]: 38%

COc1ccccc1NC1=C(N2CCCCC2)C(=O)c2ccccc2C1=O
inhibition at 25 µM [1]: 24.8%
inhibition at 25 µM [2]: 13.3%

CCOC(=O)c1cn(CC)c2cc(N3CCCCC3)c(F)cc2c1=O
inhibition at 25 µM [1]: 6.27%
inhibition at 25 µM [2]: 45%

CCCc1cc(O)c2c3c(c(=O)oc2c1)CN(C)CC3
inhibition at 25 µM [1]: 14.1%
inhibition at 25 µM [2]: 16%

Cc1cc(NC(=O)C2c3ccccc3C(=O)N(CC(C)C)C2c2cccs2)no1 (stereo not given)
inhibition at 25 µM [1]: 13.1%
inhibition at 25 µM [2]: 12.2%

Oc1ccccc1CNCC12CC3CC(CC(C3)C1)C2
inhibition at 25 µM [1]: 18.7%
inhibition at 25 µM [2]: 49.7%

CNCCCNc1ccnc2cc(Cl)ccc12
inhibition at 25 µM [1]: 5.05%
inhibition at 25 µM [2]: 8.11%

COc1ccccc1CNC(=O)CCn1c(=O)[nH]c2ccsc2c1=O
inhibition at 25 µM [1]: 0.338%
inhibition at 25 µM [2]: 9.93%

COc1ccc(Br)cc1C1Nc2ccc3ccccc3c2C2=C1C(=O)CC(c1ccccc1)C2 (stereo not given)
inhibition at 25 µM [1]: 20.9%
inhibition at 25 µM [2]: 16.2%

Cc1cc(C=C2SC(=Nc3ccccc3)N(C3CCCC3)C2=O)c(C)n1-c1ccc(Cl)cc1
inhibition at 25 µM [1]: -1.41%
inhibition at 25 µM [2]: 2.04%

CCn1c(SCC(=O)Nc2cc(C(F)(F)F)ccc2Cl)nc2ccccc2c1=O
inhibition at 25 µM [1]: 16%
inhibition at 25 µM [2]: 2.95%

O=C(Nc1ccc(Cl)cc1C(=O)Nc1ccncc1)c1ccc(Cl)cc1Cl
inhibition at 25 µM [1]: 27.7%
inhibition at 25 µM [2]: 30%

CCOc1ccc(-c2nonc2NC(=O)c2cccc(C)c2)cc1OCC
inhibition at 25 µM [1]: 9.24%
inhibition at 25 µM [2]: 2.34%

CCc1ccc(Nc2cc(C)c3ccc(O)cc3n2)cc1
inhibition at 25 µM [1]: 17.3%
inhibition at 25 µM [2]: 4.16%

COc1ccc2c(=O)cc(C(Cl)(Cl)Cl)oc2c1
inhibition at 25 µM [1]: 18.3%
inhibition at 25 µM [2]: 25.3%

Oc1ccc(C(=C(Cl)Cl)c2ccc(O)cc2)cc1
inhibition at 25 µM [1]: 0.782%
inhibition at 25 µM [2]: 9.95%

COc1cc(CNCCc2ccc(Cl)cc2)cc(OC)c1O
inhibition at 25 µM [1]: 35.9%
inhibition at 25 µM [2]: 0.392%

COc1ccc(-c2nc3cc(Cc4ccc5[nH]c(-c6ccc(OC)cc6)nc5c4)ccc3[nH]2)cc1
inhibition at 25 µM [1]: 29.3%
inhibition at 25 µM [2]: 41.7%

CCOC(=O)c1ccc2nc(-c3ccccc3)cc(O)c2c1
inhibition at 25 µM [1]: 15.5%
inhibition at 25 µM [2]: 14.6%

Cc1cc(Nc2ccc(Cl)cc2)n2nc(C(F)(F)F)nc2n1
inhibition at 25 µM [1]: 10.3%
inhibition at 25 µM [2]: 9.63%

COc1ccc(C(C)=O)cc1N1C(=O)C2C(C1=O)C1(c3ccccc3)C(=O)C2(c2ccccc2)C(c2ccc(C)cc2)=C1c1ccc(C)cc1 (stereo not given)
inhibition at 25 µM [1]: 28.1%
inhibition at 25 µM [2]: 22.4%

CCCCCCOC(=O)C1=C(C)NC(=O)NC1c1ccccc1F (stereo not given)
inhibition at 25 µM [1]: 6.8%
inhibition at 25 µM [2]: 9.78%

Cc1ccc(N2C3c4ccccc4N(S(=O)(=O)c4ccc(C)cc4)C2c2ccccc2N3S(=O)(=O)c2ccc(C)cc2)cc1
inhibition at 25 µM [1]: 18%
inhibition at 25 µM [2]: 4.16%

CCCc1c(CC)c(=N)c2ccccc2n1C
inhibition at 25 µM [1]: 4%
inhibition at 25 µM [2]: 16%

CC1CCCCN1CCCNC(=O)c1ccc2c(c1)sc1nc(-c3ccc(F)cc3)cn12 (stereo not given)
inhibition at 25 µM [1]: 9.76%
inhibition at 25 µM [2]: 33.2%

CCOC(=O)c1cnc2c(C)cc(C)cc2c1Nc1ccc(OC)c(OC)c1
inhibition at 25 µM [1]: 3.83%
inhibition at 25 µM [2]: 4.46%

CCCn1c(=N)c(C(=O)NC2CCCCC2)cc2c(=O)n3cccc(C)c3nc21
inhibition at 25 µM [1]: 2.38%
inhibition at 25 µM [2]: -4.62%

COc1ccc(NC(=O)C2c3ccccc3C(=O)N(CC(C)C)C2c2cccs2)cc1 (stereo not given)
inhibition at 25 µM [1]: 3.3%
inhibition at 25 µM [2]: 4.77%

c1ccc(Cn2c(N=Nc3c(Nc4ccccc4)ccc4ccccc34)nc3ccccc32)cc1
inhibition at 25 µM [1]: 18.7%
inhibition at 25 µM [2]: 14.9%
